Like-named read-outs stand apart in the source and are kept apart here.
Columns and labels:
Type in all cases: in vivo
[1] = tested on: influenza A virus A/England/195/2009; assay: Example 1 ferret transmission study (direct contact and respiratory droplet), plaque assay of nasal wash; conditions: for Donor ferrets positive for influenza as detected by the plaque assay: donor ferrets treated 24 h post infection; for Donor ferrets positive for influenza as detected by the plaque assay / Sentinel DC ferrets positive for influenza as detected by the plaque assay / Sentinel RD ferrets positive for influenza as detected by the plaque assay: positive/total; for respiratory droplet transmission: from treated donor ferrets to sentinels; for mean time to virus shedding, direct contact sentinels: sentinels exposed to treated donors, control 4.25 days; for Sentinel DC ferrets positive for influenza as detected by the plaque assay: untreated direct contact sentinels of treated donors; for mean time to virus shedding, respiratory droplet exposed sentinels: untreated donors 4.5 days, baloxavir value from the one infected sentinel; for Sentinel RD ferrets positive for influenza as detected by the plaque assay: untreated respiratory droplet sentinels of treated donors
[2] = tested on: Influenza A/Perth/265/2009 H1N1pdm09 virus; assay: Example 2 ferret contact transmission study, quantitative real-time RT-PCR of nasal wash; conditions: for donor viral copy numbers (qRT-PCR) compared to placebo: 3 DPI (p≤0.05), nasal wash; for recipients with influenza virus RNA detected (qRT-PCR) / ferrets with viral RNA detected (qRT-PCR), FIG. 13B recipient results: positive/total; for ferrets with viral RNA detected (qRT-PCR), FIG. 13B recipient results: Example 2 Experiment 3, printed as donors
Method: (§1) The active form baloxavir acid (S-033447, hereafter BXA) and pro-drug oseltamivir phosphate (hereafter OST) was kindly provided by Shionogi & Co., Ltd., Japan. The vehicle for BXA delivery was methyl cellulose (Sigma-Aldrich, Australia) in 0.5 w/v % aqueous solution prepared with sterile water (hereafter MC solution). BXA in suspension with MC solution (1 mg/mL) was prepared using an agate mortar and pestle, and was delivered to reversibly anaesthetised animals in a single treatment consisting of 4 subcutaneous injections at 4 locations on the dorsal region (total dose 4 mg/kg per animal). Animals in the placebo group were dosed identically using MC solution (1 mL/kg) alone. OST doses (10 mg/mL) were prepared in sugar solution (1 g/mL) and delivered bis in die (8 hr interval) to non-sedated ferrets by the oral route (total dose 10 mg/kg/day).
Viral RNA was extracted from 200 μL nasal wash samples using the NucleoMag VET isolation kit (Macherey Nagel) on the KingFisher Flex (ThermoFisher Scientific) platform according to manufacturer's instructions. Influenza virus M gene copy number in 4 μL RNA was determined by quantitative real-time RT-PCR performed using the SensiFAST Probe Lo-ROX One-Step qRT-PCR System Kit (Bioline) on the ABI 7500 Real Time PCR System (Applied Biosystems) under the following cycling conditions: 45° C. for 10 min, 1 cycle; 95° C. for 2 min, 1 cycle; 95° C. for 5 sec then 60° C. for 30 sec, 40 cycles. Sample RNA was quantitated using influenza A RNA standards of known copy number, kindly provided by Seqirus, Australia. Universal influenza A real-time primer/probe sets were kindly provided by CDC Influenza Branch (Atlanta, USA) (sequences available upon request). Results were analysed by 7500 Fast System SDS software v1.5.1.
Data analysis was performed using Graphpad Prism (GraphPad Software, v5.01). Nasal wash viral titres of all ferrets on each day post inoculation/exposure were compared by a matched two-way analysis of variance (ANOVA) followed by Tukey's multiple comparisons test. Quantitative real time RT-PCR was performed on influenza control RNA of known copy number to generate a standard curve (linear regression of influenza cycle threshold (Ct) values vs. copy number). Viral copy numbers present in nasal wash RNA samples on the same assay were calculated using the formula of the standard curve. Influenza A copy numbers for each group of ferrets were compared by a matched two-way ANOVA followed by Tukey's multiple comparisons test. p<0.05 was considered statistically significant.
This study consisted of three separate Experiments using different schedules of antiviral treatment and timing of naïve animal co-housing. In each experiment, twenty-four ferrets were randomly assigned to three groups (n=8): BXA, OST and placebo. Within each group, n=4 ferrets were designated as treated donor ferrets, and n=4 as naïve recipients. On 0 DPI (days post inoculation) for each experiment, all donor ferrets (each individually housed) were intranasally inoculated with influenza A/Perth/265/2009 at […] tissue culture infective doses (TCID50) in 40 μL of phosphate-buffered saline (PBS). As described above, donors in the BXA and placebo groups received a single antiviral treatment, whereas OST-group donors were treated daily until endpoint (excluding cull day). At the designated time point, naïve recipient ferrets were co-housed with treated donor ferrets (1:1 per cage) for a contact exposure period of 48 hr.
Experiment 1: Antiviral treatment for all donors commenced at 1 DPI, and naïve recipient ferrets were co-housed immediately following treatment. Body weight and temperature were monitored daily from all animals. Daily nasal wash samples were collected 1 mL of PBS from 1 DPI to 3 DPI for donor animals, and 1 day post exposure (DPE) to 10 DPE for recipient animals. Donors were sacrificed at 3 DPI (2 DPE), and blood was collected from BXA- and placebo-treated ferrets by cardiac puncture. […]

[3] = tested on: Influenza A/Perth/265/2009 H1N1pdm09 virus; assay: Example 2 ferret contact transmission study, TCID50 assay of nasal wash; conditions: for treated donors TCID50-positive (shedding detectable infectious virus) at donor endpoint: Example 2, all experiment schedules (Experiments 1-3); for recipient ferrets shedding detectable infectious virus (TCID50) following contact exposure to donor: donor treated 1 DPI; for recipient ferrets shedding detectable infectious virus (TCID50) following contact exposure to donor / donors shedding detectable infectious virus (TCID50) at 3 DPI endpoint / donors shedding detectable infectious virus (TCID50) at 4 DPI endpoint / ferrets shedding infectious virus (TCID50), FIG. 13A recipient results / donors shedding infectious virus (TCID50) at 4 DPI endpoint: positive/total; for donors shedding detectable infectious virus (TCID50) at 3 DPI endpoint / donors shedding detectable infectious virus (TCID50) at 4 DPI endpoint: treatment 1 DPI; for donor group titer (TCID50) compared to placebo group: baloxavir at 2 DPI (p≤0.05), 3 DPI and 4 DPI (p≤0.001), oseltamivir on 2-4 DPI; for ferrets shedding infectious virus (TCID50), FIG. 13A recipient results: donor treated 2 DPI, printed as donors at 4 DPI endpoint; for donors shedding infectious virus (TCID50) at 4 DPI endpoint: treatment 2 DPI; for effect of donor treatment on contact transmission to naïve ferrets: Example 2 Experiments 1-3
[4] = Example 2 antiviral pharmacokinetic analysis, endpoint donor plasma; conditions: ferret, sc, 4 mg/kg, 4 mg/kg s.c., read-out: baloxavir in plasma ±SD
Method: as §1
Endpoint BXA and placebo-treated donor blood samples were collected in heparinised tubes, and plasma isolated by centrifugation. Plasma samples were stored at −80° C. until transport to analytical facilities at Shionogi & Co., Ltd.
Experiment 1: Antiviral treatment for all donors commenced at 1 DPI, and naïve recipient ferrets were co-housed immediately following treatment. Body weight and temperature were monitored daily from all animals. Daily nasal wash samples were collected 1 mL of PBS from 1 DPI to 3 DPI for donor animals, and 1 day post exposure (DPE) to 10 DPE for recipient animals. Donors were sacrificed at 3 DPI (2 DPE), and blood was collected from BXA- and placebo-treated ferrets by cardiac puncture. Recipients were sacrificed at 10 DPE.
Experiment 2: Antiviral treatment commenced at 1 DPI, and recipient co-housing was delayed until 24 hr following treatment (2 DPI). Body weight and temperature were monitored daily from all animals. […]
Experiment 3: Antiviral treatment commenced at 2 DPI, and recipients were co-housed immediately afterwards. Body weight and temperature were monitored daily from all animals. […]

[5] = Example 2 Experiment 1, baloxavir at 2 DPI (p≤0.05) and 3 DPI (p≤0.001)
[6] = Example 2 Experiment 1, co-housing 1 DPI
[7] = Example 2 Experiment 2, co-housing 2 DPI
[8] = Example 2 Experiment 3, baloxavir at 3 and 4 DPI (p≤0.001), oseltamivir on 3 DPI (p≤0.05)
[9] = Example 2 Experiment 3, co-housing 2 DPI

| SMILES | Donor ferrets positive for influenza as detected by the plaque assay [1] | respiratory droplet transmission [1] [%] | mean time to virus shedding, direct contact sentinels [1] [days] | Sentinel DC ferrets positive for influenza as detected by the plaque assay [1] | mean time to virus shedding, respiratory droplet exposed sentinels [1] [days] | Sentinel RD ferrets positive for influenza as detected by the plaque assay [1] | donor viral copy numbers (qRT-PCR) compared to placebo ([2]; Example 2 Experiment 1) | recipients with influenza virus RNA detected (qRT-PCR) ([2]; Example 2 Experiment 1) | recipients with influenza virus RNA detected (qRT-PCR) ([2]; Example 2 Experiment 2) | ferrets with viral RNA detected (qRT-PCR), FIG. 13B recipient results [2] | treated donors TCID50-positive (shedding detectable infectious virus) at donor endpoint [3] | donor group titer (TCID50) compared to placebo-group [3, 5] | recipient ferrets shedding detectable infectious virus (TCID50) following contact exposure to donor [3, 6] | donors shedding detectable infectious virus (TCID50) at 3 DPI endpoint ([3]; Example 2 Experiment 1) | donor group titer (TCID50) compared to placebo group ([3]; Example 2 Experiment 2) | recipient ferrets shedding detectable infectious virus (TCID50) following contact exposure to donor [3, 7] | donors shedding detectable infectious virus (TCID50) at 4 DPI endpoint ([3]; Example 2 Experiment 2) | donor group titer (TCID50) compared to placebo-group [3, 8] | ferrets shedding infectious virus (TCID50), FIG. 13A recipient results [3, 9] | donors shedding infectious virus (TCID50) at 4 DPI endpoint ([3]; Example 2 Experiment 3) | also measured |
| --- | --- | --- | --- | --- | --- | --- | --- | --- | --- | --- | --- | --- | --- | --- | --- | --- | --- | --- | --- | --- | --- |
| CCOC(=O)C1=C[C@@H](OC(CC)CC)[C@H](NC(C)=O)[C@@H](N)C1 [oseltamivir, oseltamivir phosphate, reference compound] | 4/4 | 100 | 5.5 | 4/4 | 9.3 | 3/4 | significantly reduced | 4/4 | 4/4 | 4/4 | 4/4 | no significant difference | 4/4 | 4/4 | no difference | 4/4 | 4/4 | significantly lower | 4/4 | 4/4 | recipients demonstrating evidence of infection by TCID50, qRT-PCR and serology ([3]; Example 2, all experimental conditions): 100%; effect of donor treatment on contact transmission to naïve ferrets [3]: does not reduce |
| O=C1c2c(O)c(=O)ccn2N([C@@H]2c3ccccc3SCc3c2ccc(F)c3F)[C@@H]2COCCN12 [baloxavir, baloxavir acid] | 3/4 | 25 | 5.5 | 4/4 | 8 | 1/4 | significantly reduced | 2/4 | 1/4 | 3/4 | 0/4 and No | significantly lower | 1/4 | 0/4 | significantly lower | 1/4 | 0/4 | significantly lower | 2/4 | 0/4 | donor mean viral copy number (qRT-PCR) ([2]; Example 2 Experiment 2, 3 DPI, no differences at any other days): reduced; concentration at 48 h ([4]; Example 2 Experiment 1, 48 hours post treatment): 10.2 ± 2.8 ng/mL; concentration at 72 h ([4]; Example 2 Experiment 2, 72 hr post treatment): 12.5 ± 2.4 ng/mL; concentration at 72 h ([4]; Example 2 Experiment 3, 72 hr post treatment (so in the source)): 24.5 ± 4.03 ng/mL; mean viral titres compared to the placebo-group ([3]; Example 2, 24 hours following treatment, all experiment conditions (p≤0.05)): significantly reduced; frequency of infectious viral shedding in recipients ([3]; Example 2, donor treatment at 1 DPI): 25%; frequency of infectious viral shedding in recipients ([3]; Example 2, donor treatment at 2 DPI): 50%; infectious virus titers in the URT compared to both placebo and oseltamivir ([3]; Example 2, three independent experiments, single treatment of infected ferrets): significantly reduced; reduction in transmission ([3]; Example 2, treatment 48 hr post infection): 50%; reduction of transmission ([3]; Example 2, treatment within 24 hr of infection): 75%; donor group titer (TCID50) compared to oseltamivir group ([3]; Example 2 Experiment 2, 3-4 DPI (p≤0.01)): significantly lower; donor group titer (TCID50) compared to oseltamivir-group ([3]; Example 2 Experiment 3, 4 DPI (p≤0.001)): lower; effect of donor treatment on contact transmission to naïve ferrets [3]: reduces |

— patent US11911394B2, “Compound and method for the prevention of transmission of influenza virus” (Hoffmann-La Roche Inc., priority 2019, dated 2024)
